# Experimental data reported in patent publication US8349896B2, “Aspirin-triggered lipid mediators” (The Brigham and Womens's Hospital, Inc., priority 2000, dated 2013).
# Like-named read-outs stand apart in the source and are kept apart here.
# Columns and labels:
# [1] = biological target: T1, recombinant human LTB4 receptor (Homo sapiens, UniProt Q15722); test: [3H]LTB4 competition binding, HEK-293 cells stably expressing receptor; conditions: HEK293 cells
# T1 construct: expressed in transfected cells
# T1 sequence (Q15722 whole entry): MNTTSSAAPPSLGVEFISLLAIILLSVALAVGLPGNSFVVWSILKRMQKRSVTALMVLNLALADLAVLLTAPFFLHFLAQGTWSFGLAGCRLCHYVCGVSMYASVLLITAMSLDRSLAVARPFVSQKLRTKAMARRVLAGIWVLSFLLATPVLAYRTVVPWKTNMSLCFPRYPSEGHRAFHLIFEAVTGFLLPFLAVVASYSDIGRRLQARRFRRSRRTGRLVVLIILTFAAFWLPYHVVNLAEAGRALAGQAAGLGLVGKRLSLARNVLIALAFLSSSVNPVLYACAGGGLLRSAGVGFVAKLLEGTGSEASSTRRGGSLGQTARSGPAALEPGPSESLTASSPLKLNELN
# human PMN = test: LTB4-stimulated PMN transendothelial migration; type: cell-based; conditions: for potency relative to the compounds derived from EPA: similar to results of FIGS. 9A (transmigration) and 9C (air pouch), no data shown; for IC50: human PMN, FIG. 9A; for rank order of potency, inhibition of PMN migration: tested in parallel for direct comparison
# Method: Human PMNs were freshly isolated from venous blood of healthy volunteers (that declined taking medication for 2 wk before donation; Brigham and Women's Hospital protocol no. 88-02642) by Ficoll gradient and enumerated. Human umbilical vein or microvascular ECs (HUVECs or HMVECs, respectively) were cultured for transendothelial migration (Reference 10), HMVEC monolayers (one, two, or three passages) were seeded (−2×10^5 cells/cm^2) on polycarbonate permeable supports precoated with 0.1% gelatin for incubations with NSAIDs and PUFA.
# [2] = tested on: PMN infiltration into murine dorsal air pouches; test: TNF-α induced leukocyte/PMN infiltration into murine dorsal air pouch; type: in vivo, FVB mice; conditions: 100 ng intravenously into tail; TNF-α 100 ng/pouch; lavage at 4 h
# Method: Inflammatory exudates were initiated with intrapouch injection of TNF-α (R&D Systems) into 6 d dorsal air pouches with (Reference 16) 6-8-wk-old male FVB mice (fed standard rodent diet 5001 containing 0.26% n-3 fatty acids) followed by ASA (500 μg) at 3.5 h and 300 μg C20:5/pouch at 4 h. At 6 h, pouches were lavaged (3 ml saline), and exudate cells were enumerated and activated 94 μM A23187, 37° C., 20 min). Inhibition of TNF-α-stimulated (100 ng/pouch, FVB strain) PMN infiltration with intravenous tail injection of either 18 R-hydroxyeicosapentaenoic acid (HEPE), 5, 12, 18R-HEPE, or 15-epi-LXA, analogue was determined (Reference 16) with pouch lavages taken at 4 h.
# Recombinant Human COX-2 = biological target: T2, Recombinant Human COX-2 (Homo sapiens, UniProt P35354); test: Conversion of PUFA to hydroxy compounds by recombinant COX-2 incubated with NSAID; type: biochemical; conditions: for 11R-HEPE, conversion of n-3 C20:5 / 15R-HEPE, conversion of n-3 C20:5 / 18R-HEPE, conversion of n-3 C20:5: Table 2, mean amount +/− SEM
# T2 construct: host or cells: Sf9 insect cells, baculovirus; microsomal fractions
# T2 sequence (P35354 18-604): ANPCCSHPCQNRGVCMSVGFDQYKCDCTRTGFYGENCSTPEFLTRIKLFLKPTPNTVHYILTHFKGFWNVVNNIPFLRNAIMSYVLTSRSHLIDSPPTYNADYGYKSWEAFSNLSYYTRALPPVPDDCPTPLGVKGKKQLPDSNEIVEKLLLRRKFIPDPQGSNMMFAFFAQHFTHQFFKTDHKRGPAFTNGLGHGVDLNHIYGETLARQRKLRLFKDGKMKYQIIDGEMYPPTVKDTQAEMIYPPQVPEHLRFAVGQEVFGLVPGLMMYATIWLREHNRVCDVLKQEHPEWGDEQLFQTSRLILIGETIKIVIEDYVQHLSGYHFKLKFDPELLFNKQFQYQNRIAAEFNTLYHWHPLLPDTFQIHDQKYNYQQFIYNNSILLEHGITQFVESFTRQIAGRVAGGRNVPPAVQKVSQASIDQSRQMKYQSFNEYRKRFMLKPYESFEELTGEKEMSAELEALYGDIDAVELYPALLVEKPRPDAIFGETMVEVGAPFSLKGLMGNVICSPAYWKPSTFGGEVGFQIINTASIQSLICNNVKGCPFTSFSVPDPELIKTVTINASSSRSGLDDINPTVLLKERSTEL
# Method: Human recombinant COX-2 (a gift from Dr. R. A. Copeland, DuPont Merck, Wilmington, Del.) was overexpressed in […] (American Type Culture Collection) with microsomal fractions (˜8 μl) suspended in Tris (100 mM, pH 8.0) as in Reference 21. George, H. J., D. E. Van Dyk, R. A. Straney, J. M. Trzaskos, and R. A. Copeland. 1996. Expression purification and characterization of recombinant human inducible prostaglandin G/H synthase from baculovirus-infected insect cells. Protein Expres. Purif. 7:19-26. NSAIDs were incubated (i.e., ASA ˜1 mM) at 37° C. for 30 min before addition of PUFA (20 μM), and conversions were also monitored using 1-^14C-labeled C20:4 (See FIGS. 2A and 2B) or C20:5 (NEN Life Science Products) (See FIGS. 2C and 2D).
# [3] = PUFA 20 μM, ASA ~1 mM or NS398 100 uM, mean ± SEM
# [4] = PUFA 20 μM, ASA ~1 mM, mean ± SEM
# [5] = Table 1, PUFA 20 μM, ASA ~1 mM or NS398 100 uM, mean ± SEM
molecule,measurement,setting,value
CC/C=C\C/C=C\C[C@@H](O)/C=C/C=C/C=C\[C@@H](O)CCCC(=O)O [LTB5],IC50,[1],500 nM
CC/C=C\C/C=C\C=C\C(O)C/C=C\C/C=C\C/C=C\CCC(=O)O (stereo not drawn) [13-hydroxy-DHA],potency relative to the compounds derived from EPA,human PMN,potencies equivalent to those described above for the compounds derived from EPA
CC/C=C\C/C=C\CC(O)/C=C/C=C\C/C=C\C/C=C\CCC(=O)O (stereo not drawn) [14-hydroxy-DHA],potency relative to the compounds derived from EPA,human PMN,potencies equivalent to those described above for the compounds derived from EPA
CCC(O)/C=C/C=C\C/C=C\C/C=C\C/C=C\C/C=C\CCC(=O)O (stereo not drawn) [20-hydroxy-DHA],potency relative to the compounds derived from EPA,human PMN,potencies equivalent to those described above for the compounds derived from EPA
CC/C=C\CC(O)/C=C/C=C\C/C=C\C/C=C\C/C=C\CCC(=O)O (stereo not drawn) [17-hydroxy-DHA],potency relative to the compounds derived from EPA,human PMN,potencies equivalent to those described above for the compounds derived from EPA
"CC[C@@H](O)/C=C/C=C\C/C=C\C/C=C\C/C=C\CCCC(=O)O [Compound 18R-HEPE, 18R-hydroxyeicosapentaenoic acid]",IC50,"human PMN; read-out: IC50, inhibition of LTB4-stimulated PMN transendothelial migration",> 1000 nM
same,"rank order of potency, inhibition of PMN migration",human PMN,"15-epi-LXA4 stable analogue >5,12,18R-tri-HEPE >18R-HEPE"
same,competition with 3H-LTB4 (in words),[1],did not
same,inhibition of PMN infiltration into murine dorsal air pouches (in words),[2],some activity in vivo
"CC[C@@H](O)/C=C/C=C\C[C@@H](O)/C=C/C=C/C=C\[C@@H](O)CCCC(=O)O [5,12,18R-triHEPE]",IC50,"human PMN; read-out: apparent IC50, inhibition of LTB4-stimulated PMN transendothelial migration",5 to 50 nM
same,"rank order of potency, inhibition of PMN migration",human PMN,"15-epi-LXA4 stable analogue >5,12,18R-tri-HEPE >18R-HEPE"
same,IC50,[1],500 nM
same,inhibition of PMN infiltration into murine dorsal air pouches (in words),[2],potent inhibitor of PMN infiltration
19-hydroxy-DHA,potency relative to the compounds derived from EPA,human PMN,potencies equivalent to those described above for the compounds derived from EPA
CC/C=C\C=C\C(O)C/C=C\C/C=C\C/C=C\C/C=C\CCC(=O)O (stereo not drawn) [16-hydroxy-DHA],potency relative to the compounds derived from EPA,human PMN,potencies equivalent to those described above for the compounds derived from EPA
"CC(=O)Oc1ccccc1C(=O)O [ASA, aspirin]",increase in 18R-HEPE on ASA acetylation of COX-2,Recombinant Human COX-2; C20:5,approximately twofold increase
same,reduction in 11R-HEPE on ASA acetylation of COX-2,Recombinant Human COX-2; C20:5,> 85%
same,11R-HETE (ω-9) generated from C20:4,Recombinant Human COX-2; [3],1.4 ± 1.6 ng/incubation
same,15R-HETE (ω-5) generated from C20:4,Recombinant Human COX-2; [3],234.0 ± 112.5 ng/incubation
same,9-HODE (ω-9) generated from C18:2,Recombinant Human COX-2; [4],25.2 ± 17.8 ng/incubation
same,13-HODE (ω-5) generated from C18:2,Recombinant Human COX-2; [4],2.9 ± 0.6 ng/incubation
same,11R-HEPE (ω-9) generated from C20:5,Recombinant Human COX-2; [5],5.4 ± 3.3 ng/incubation
same,15R-HEPE (ω-5) generated from C20:5,Recombinant Human COX-2; [5],16.8 ± 5.8 ng/incubation
same,18R-HEPE (ω-2) generated from C20:5,Recombinant Human COX-2; [5],16.2 ± 3.3 ng/incubation
same,"11R-HEPE, conversion of n-3 C20:5",Recombinant Human COX-2,5.5 ± 2.3 ng
same,"15R-HEPE, conversion of n-3 C20:5",Recombinant Human COX-2,8.0 ± 5.6 ng
same,"18R-HEPE, conversion of n-3 C20:5",Recombinant Human COX-2,12.2 ± 4.6 ng
"O=C(O)CCC[C@H](O)[C@H](O)/C=C/C=C/C=C\C=C\[C@H](O)COc1ccc(F)cc1 [15-epi-LXA4 stable analogue, 15(5)-16(para-fluoro)-phenoxy-LXA4]","rank order of potency, inhibition of PMN migration",human PMN,"15-epi-LXA4 stable analogue >5,12,18R-tri-HEPE >18R-HEPE"
same,inhibition of PMN infiltration into murine dorsal air pouches (in words),[2],potent inhibitor of PMN infiltration
CC(=O)Nc1ccc(O)cc1 [Acetaminophen],"11R-HEPE, conversion of n-3 C20:5",Recombinant Human COX-2,6.7 ± 3.0 ng
same,"15R-HEPE, conversion of n-3 C20:5",Recombinant Human COX-2,4.6 ± 1.2 ng
same,"18R-HEPE, conversion of n-3 C20:5",Recombinant Human COX-2,5.5 ± 2.4 ng
same,reduction of levels of 15R- and 18R-HEPE versus absence of inhibitors,"Recombinant Human COX-2; recombinant COX-2 and C20:5, concentrations as high as 2 mM, n=3",three to eight times
